ChEMBL document CHEMBL5463725, “Data for DCP probe BAY-277” (2023)
pIC50, pKi: −log10 of the molar value. Calls of active or inactive are those of the source. The calls are words filed in the database; no cut-off is given here.

Tests used:
[1] = target: 5-hydroxytryptamine receptor 5A (Homo sapiens) (UniProt P47898); settings: Compound concentration 10.0 uM
[2] = target: Hepatocyte growth factor receptor (Homo sapiens) (UniProt P08581); assay: Inhibition of Met(h) at 10.0 µM in the Eurofins Kinase panel; settings: Compound concentration 10.0 uM
Sequence of Hepatocyte growth factor receptor (Homo sapiens) (P08581 whole entry): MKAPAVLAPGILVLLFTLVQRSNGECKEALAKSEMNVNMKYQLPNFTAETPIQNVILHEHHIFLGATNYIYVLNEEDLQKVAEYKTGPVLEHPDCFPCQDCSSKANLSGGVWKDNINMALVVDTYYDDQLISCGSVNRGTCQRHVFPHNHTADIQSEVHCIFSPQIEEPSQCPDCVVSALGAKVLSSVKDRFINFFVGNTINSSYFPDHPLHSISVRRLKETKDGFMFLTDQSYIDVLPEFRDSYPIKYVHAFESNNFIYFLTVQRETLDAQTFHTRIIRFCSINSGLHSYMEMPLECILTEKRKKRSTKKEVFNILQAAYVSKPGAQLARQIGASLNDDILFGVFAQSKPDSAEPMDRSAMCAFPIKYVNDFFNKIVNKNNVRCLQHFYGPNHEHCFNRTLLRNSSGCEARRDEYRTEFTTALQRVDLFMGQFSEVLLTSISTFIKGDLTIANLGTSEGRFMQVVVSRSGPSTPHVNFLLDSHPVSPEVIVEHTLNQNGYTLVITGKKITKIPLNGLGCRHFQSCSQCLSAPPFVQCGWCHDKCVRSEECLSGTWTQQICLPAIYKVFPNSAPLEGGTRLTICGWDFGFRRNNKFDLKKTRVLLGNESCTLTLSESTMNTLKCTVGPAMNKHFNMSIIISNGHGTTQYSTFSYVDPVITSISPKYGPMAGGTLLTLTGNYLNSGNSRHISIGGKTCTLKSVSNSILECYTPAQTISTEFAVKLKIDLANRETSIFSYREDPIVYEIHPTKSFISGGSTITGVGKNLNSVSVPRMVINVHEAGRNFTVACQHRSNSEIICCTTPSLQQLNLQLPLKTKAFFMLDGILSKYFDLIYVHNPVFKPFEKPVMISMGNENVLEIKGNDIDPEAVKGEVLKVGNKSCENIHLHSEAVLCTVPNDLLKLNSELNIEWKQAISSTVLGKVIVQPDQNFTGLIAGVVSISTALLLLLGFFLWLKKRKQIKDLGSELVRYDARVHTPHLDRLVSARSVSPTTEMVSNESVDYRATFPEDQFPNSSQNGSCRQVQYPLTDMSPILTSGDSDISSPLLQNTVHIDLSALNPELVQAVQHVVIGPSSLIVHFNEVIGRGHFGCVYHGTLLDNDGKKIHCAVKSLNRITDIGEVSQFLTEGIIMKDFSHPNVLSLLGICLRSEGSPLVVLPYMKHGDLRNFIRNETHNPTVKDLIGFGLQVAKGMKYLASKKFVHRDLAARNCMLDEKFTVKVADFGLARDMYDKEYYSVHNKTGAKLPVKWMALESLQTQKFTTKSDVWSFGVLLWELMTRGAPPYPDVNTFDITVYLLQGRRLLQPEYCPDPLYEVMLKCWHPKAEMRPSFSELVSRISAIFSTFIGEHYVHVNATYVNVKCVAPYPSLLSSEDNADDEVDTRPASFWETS

[3] = target: Muscarinic acetylcholine receptor M3 (Homo sapiens, UniProt P20309); assay: GPCRScan assay: inhibition of M3; parameters: radioligand conc. used [nm] 0.3 – 1.0, parental cells stable CHO; settings: for pKi: read-out: Ki; for Ki: read-out: pKi (converted)
Sequence of Muscarinic acetylcholine receptor M3 (P20309 whole entry): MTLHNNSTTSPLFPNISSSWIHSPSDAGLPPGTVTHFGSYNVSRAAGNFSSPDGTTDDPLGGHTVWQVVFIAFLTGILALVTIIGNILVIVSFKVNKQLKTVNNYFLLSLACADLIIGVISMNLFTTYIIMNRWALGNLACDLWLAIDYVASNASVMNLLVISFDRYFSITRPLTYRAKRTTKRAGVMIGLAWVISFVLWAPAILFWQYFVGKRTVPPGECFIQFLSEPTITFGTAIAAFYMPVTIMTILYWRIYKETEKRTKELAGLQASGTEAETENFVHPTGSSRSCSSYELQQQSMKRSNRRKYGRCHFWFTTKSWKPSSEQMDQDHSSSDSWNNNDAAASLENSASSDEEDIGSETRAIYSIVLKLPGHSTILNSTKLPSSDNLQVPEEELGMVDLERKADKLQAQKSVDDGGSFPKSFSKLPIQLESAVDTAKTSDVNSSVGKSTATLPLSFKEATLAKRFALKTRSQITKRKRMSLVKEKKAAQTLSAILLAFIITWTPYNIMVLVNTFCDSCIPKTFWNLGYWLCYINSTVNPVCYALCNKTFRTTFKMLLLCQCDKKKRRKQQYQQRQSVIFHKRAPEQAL

[4] = target: Cannabinoid receptor 2 (Homo sapiens) (UniProt P34972); assay: Inhibition of Cannabinoid CB2 at 10.0 µM in the Eurofins Panlabs Safety Screen; settings: Compound concentration 10.0 uM
[5] = target: Beta-adrenergic receptor kinase 1 (Homo sapiens) (UniProt P25098); assay: Inhibition of GRK2(h) at 10.0 µM in the Eurofins Kinase panel; settings: Compound concentration 10.0 uM
[6] = target: Alpha-1D adrenergic receptor (Homo sapiens) (UniProt P25100); settings: Compound concentration 10.0 uM
Sequence of Alpha-1D adrenergic receptor (Homo sapiens) (P25100 whole entry): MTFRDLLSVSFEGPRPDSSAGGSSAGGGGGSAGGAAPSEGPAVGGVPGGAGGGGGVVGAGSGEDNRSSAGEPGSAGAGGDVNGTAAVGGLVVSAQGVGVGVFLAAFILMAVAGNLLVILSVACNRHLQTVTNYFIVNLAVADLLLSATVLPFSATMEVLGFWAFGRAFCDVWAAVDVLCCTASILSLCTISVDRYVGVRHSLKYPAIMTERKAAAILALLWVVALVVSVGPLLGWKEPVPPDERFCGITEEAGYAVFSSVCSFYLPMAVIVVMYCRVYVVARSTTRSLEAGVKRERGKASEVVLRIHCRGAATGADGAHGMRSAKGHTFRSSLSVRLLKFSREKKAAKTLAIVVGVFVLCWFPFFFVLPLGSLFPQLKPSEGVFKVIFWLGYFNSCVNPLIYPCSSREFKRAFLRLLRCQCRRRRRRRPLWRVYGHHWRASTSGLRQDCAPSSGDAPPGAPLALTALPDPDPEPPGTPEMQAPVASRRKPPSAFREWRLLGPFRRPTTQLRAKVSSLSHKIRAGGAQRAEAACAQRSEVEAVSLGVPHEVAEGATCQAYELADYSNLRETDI

[7] = target: 5-hydroxytryptamine receptor 2B (Homo sapiens) (UniProt P41595); assay: Inhibition of Serotonin (5-Hydroxytryptamine) 5-HT2B at 10.0 µM in the Eurofins Panlabs Safety Screen; settings: Compound concentration 10.0 uM
[8] = target: Purinergic P2Y (Rattus norvegicus) (UniProt O35811+Q9EPX4+P49651+Q63371+P41232+O35881+Q6GUG4); assay: Inhibition of Purinergic P2Y, non-selective at 10.0 µM in the Eurofins Panlabs Safety Screen; format: protein assay; settings: Compound concentration 10.0 uM
[9] = target: T1, 5-hydroxytryptamine receptor 2C (Homo sapiens) (UniProt P28335); assay: Inhibition of Serotonin (5-Hydroxytryptamine) 5-HT2C at 10.0 µM in the Eurofins Panlabs Safety Screen; settings: Compound concentration 10.0 uM
T1 sequence (whole entry): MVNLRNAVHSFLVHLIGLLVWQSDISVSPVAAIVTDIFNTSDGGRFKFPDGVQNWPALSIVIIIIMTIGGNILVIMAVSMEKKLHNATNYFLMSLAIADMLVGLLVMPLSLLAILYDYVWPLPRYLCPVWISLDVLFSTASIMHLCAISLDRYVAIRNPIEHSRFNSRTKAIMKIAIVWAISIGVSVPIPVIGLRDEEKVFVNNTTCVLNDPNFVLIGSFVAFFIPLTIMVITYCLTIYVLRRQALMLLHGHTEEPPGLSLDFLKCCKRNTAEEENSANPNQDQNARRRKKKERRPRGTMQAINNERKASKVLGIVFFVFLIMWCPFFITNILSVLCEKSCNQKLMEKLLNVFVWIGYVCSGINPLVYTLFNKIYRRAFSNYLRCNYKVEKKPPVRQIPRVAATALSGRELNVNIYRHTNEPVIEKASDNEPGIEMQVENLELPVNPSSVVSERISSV

[10] = target: Adenosine receptor A1 (Homo sapiens) (UniProt P30542); assay: Inhibition of Adenosine A1 at 10.0 µM in the Eurofins Panlabs Safety Screen; settings: Compound concentration 10.0 uM
[11] = target: Sigma non-opioid intracellular receptor 1 (Homo sapiens) (UniProt Q99720); settings: Compound concentration 10.0 uM
Sequence of Sigma non-opioid intracellular receptor 1 (Homo sapiens) (Q99720 whole entry): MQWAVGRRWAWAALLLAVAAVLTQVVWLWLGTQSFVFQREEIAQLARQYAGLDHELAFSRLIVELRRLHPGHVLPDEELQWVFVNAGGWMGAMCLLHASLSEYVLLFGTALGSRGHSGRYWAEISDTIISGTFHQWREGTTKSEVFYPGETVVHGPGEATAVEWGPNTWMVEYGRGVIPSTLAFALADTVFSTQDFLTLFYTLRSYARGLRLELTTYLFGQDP

[12] = target: Beta-2 adrenergic receptor (Homo sapiens) (UniProt P07550); assay: Inhibition of Adrenergic beta2 at 10.0 µM in the Eurofins Panlabs Safety Screen; settings: Compound concentration 10.0 uM
[13] = target: D(1A) dopamine receptor (Homo sapiens) (UniProt P21728); assay: Inhibition of Dopamine D1 at 10.0 µM in the Eurofins Panlabs Safety Screen; settings: Compound concentration 10.0 uM
[14] = target: Sodium/potassium-transporting ATPase (Sus scrofa) (UniProt P05027+P05024+D2WKD8+D2WKD7+F1ST41); assay: Inhibition of ATPase, Na+/K+, Heart, Pig at 10.0 µM in the Eurofins Panlabs Safety Screen; format: protein-complex assay; settings: Compound concentration 10.0 uM
[15] = target: Muscarinic acetylcholine receptor M5 (Homo sapiens) (UniProt P08912); settings: Compound concentration 10.0 uM
Sequence of Muscarinic acetylcholine receptor M5 (Homo sapiens) (P08912 whole entry): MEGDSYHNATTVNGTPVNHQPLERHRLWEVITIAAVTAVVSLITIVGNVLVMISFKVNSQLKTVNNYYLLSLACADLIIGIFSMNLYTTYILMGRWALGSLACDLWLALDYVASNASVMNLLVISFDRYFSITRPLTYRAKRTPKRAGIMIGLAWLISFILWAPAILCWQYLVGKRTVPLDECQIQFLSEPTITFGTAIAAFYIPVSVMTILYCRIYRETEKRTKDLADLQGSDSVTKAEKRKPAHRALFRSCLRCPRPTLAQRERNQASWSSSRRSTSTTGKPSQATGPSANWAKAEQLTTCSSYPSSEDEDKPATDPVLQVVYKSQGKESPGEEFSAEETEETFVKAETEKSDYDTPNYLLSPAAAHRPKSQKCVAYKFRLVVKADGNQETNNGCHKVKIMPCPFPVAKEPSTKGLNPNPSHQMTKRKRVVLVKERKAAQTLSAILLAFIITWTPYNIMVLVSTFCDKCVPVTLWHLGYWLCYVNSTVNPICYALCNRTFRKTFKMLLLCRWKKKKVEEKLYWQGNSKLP

[16] = target: Beta-3 adrenergic receptor (Homo sapiens) (UniProt P13945); assay: Inhibition of Adrenergic beta3 at 10.0 µM in the Eurofins Panlabs Safety Screen; settings: Compound concentration 10.0 uM
Sequence of Beta-3 adrenergic receptor (Homo sapiens) (P13945 whole entry, looked up): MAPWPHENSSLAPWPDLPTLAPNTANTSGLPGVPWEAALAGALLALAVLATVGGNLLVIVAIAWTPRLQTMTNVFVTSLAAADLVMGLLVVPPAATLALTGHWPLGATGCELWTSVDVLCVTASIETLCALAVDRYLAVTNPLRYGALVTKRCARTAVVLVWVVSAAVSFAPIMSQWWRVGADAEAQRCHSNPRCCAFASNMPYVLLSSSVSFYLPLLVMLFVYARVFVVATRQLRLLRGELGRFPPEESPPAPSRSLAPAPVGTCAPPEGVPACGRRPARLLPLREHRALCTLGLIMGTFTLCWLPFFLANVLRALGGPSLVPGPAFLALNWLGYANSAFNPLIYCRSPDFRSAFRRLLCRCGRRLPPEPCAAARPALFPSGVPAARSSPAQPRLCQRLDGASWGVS

[17] = target: Tyrosine-protein kinase HCK (Homo sapiens) (UniProt P08631); assay: Inhibition of Hck(h) at 10.0 µM in the Eurofins Kinase panel; settings: Compound concentration 10.0 uM
Sequence of Tyrosine-protein kinase HCK (Homo sapiens) (P08631 2-526 limits assumed): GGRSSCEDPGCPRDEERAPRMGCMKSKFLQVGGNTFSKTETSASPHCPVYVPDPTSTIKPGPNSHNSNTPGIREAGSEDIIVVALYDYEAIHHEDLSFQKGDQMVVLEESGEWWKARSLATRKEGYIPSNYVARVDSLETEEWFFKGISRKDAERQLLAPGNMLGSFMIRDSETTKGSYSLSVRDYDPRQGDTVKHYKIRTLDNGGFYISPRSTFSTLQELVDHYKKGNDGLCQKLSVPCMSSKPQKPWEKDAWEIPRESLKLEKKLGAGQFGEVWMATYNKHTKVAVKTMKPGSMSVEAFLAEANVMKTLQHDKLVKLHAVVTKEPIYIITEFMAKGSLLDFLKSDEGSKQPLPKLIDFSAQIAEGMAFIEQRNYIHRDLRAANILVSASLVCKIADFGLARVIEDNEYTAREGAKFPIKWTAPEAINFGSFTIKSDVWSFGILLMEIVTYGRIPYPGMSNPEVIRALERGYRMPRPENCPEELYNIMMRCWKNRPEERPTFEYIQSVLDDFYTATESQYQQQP

[18] = target: GABA B receptor (Rattus norvegicus) (UniProt Q9Z0U4+O88871); assay: Inhibition of GABAB, Non-Selective at 10.0 µM in the Eurofins Panlabs Safety Screen; format: protein-complex assay; settings: Compound concentration 10.0 uM
[19] = target: GABA-A receptor; anion channel (Rattus norvegicus) (UniProt O09028+P15431+P18506+P18508+P19969+P20236+P23574+P23576+P28471+P28473+P30191+P62813+P63079+P63138+Q91ZM7+Q9ES14); assay: Inhibition of GABAA, Flunitrazepam, Central at 10.0 µM in the Eurofins Panlabs Safety Screen; format: protein-complex assay; settings: Compound concentration 10.0 uM
[20] = target: Monoamine oxidase A (MAO-A) (Homo sapiens, UniProt P21397); assay: Inhibition of Monoamine Oxidase MAO-A at 10.0 µM in the Eurofins Panlabs Safety Screen; settings: compound concentration 10 uM
[21] = target: Kappa-type opioid receptor (Homo sapiens) (UniProt P41145); settings: Compound concentration 10.0 uM
Sequence of Kappa-type opioid receptor (Homo sapiens) (P41145 whole entry): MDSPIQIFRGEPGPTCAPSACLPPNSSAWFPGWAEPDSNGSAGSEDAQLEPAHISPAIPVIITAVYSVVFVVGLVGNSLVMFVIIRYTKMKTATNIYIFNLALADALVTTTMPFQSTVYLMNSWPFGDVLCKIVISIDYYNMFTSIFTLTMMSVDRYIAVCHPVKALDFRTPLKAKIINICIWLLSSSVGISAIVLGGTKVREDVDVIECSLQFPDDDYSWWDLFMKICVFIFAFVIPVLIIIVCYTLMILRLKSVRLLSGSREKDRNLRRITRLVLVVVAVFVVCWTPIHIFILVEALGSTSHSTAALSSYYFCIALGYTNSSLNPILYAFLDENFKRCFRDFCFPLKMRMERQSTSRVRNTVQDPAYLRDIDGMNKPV

[22] = target: Serine/threonine-protein kinase haspin (Homo sapiens) (UniProt Q8TF76); assay: Inhibition of Haspin(h) at 10.0 µM in the Eurofins Kinase panel; settings: Compound concentration 10.0 uM
[23] = target: Acetylcholinesterase (Homo sapiens) (UniProt P22303); assay: Inhibition of Cholinesterase, Acetyl, ACES at 10.0 µM in the Eurofins Panlabs Safety Screen; settings: Compound concentration 10.0 uM
[24] = target: Histamine H2 receptor (Homo sapiens) (UniProt P25021); assay: Inhibition of Histamine H2 at 10.0 µM in the Eurofins Panlabs Safety Screen; settings: Compound concentration 10.0 uM
[25] = target: 3',5'-cyclic-AMP phosphodiesterase 4D (Homo sapiens) (UniProt Q08499); assay: Inhibition of Phosphodiesterase PDE4D2 at 10.0 µM in the Eurofins Panlabs Safety Screen; settings: Compound concentration 10.0 uM
[26] = target: Glutamate NMDA receptor (Rattus norvegicus) (UniProt P35439+Q00959+Q00960+Q00961+Q62645+Q8VHN2+Q9R1M7); assay: Inhibition of Glutamate, NMDA, Agonism at 10.0 µM in the Eurofins Panlabs Safety Screen; format: protein-complex assay; settings: Compound concentration 10.0 uM
[27] = target: Methionine aminopeptidase 2 (Homo sapiens, UniProt P50579); assay: METAP2 biochemical assay (human)

Sequence of 5-hydroxytryptamine receptor 5A (Homo sapiens) (P47898 whole entry): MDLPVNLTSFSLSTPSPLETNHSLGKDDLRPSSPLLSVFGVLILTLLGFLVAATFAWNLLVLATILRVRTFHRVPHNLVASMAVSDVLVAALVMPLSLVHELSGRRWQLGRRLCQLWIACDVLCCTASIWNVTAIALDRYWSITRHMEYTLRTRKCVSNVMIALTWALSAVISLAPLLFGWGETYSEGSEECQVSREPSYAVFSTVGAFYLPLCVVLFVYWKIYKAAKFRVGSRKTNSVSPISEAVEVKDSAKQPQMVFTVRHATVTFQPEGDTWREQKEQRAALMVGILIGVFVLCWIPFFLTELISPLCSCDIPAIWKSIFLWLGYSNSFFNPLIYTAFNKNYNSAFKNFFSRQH

SMILES	inhibition [1] [%]	inhibition [2] [%]	pKi [3]	Ki [3] [nM]	inhibition [4] [%]	inhibition [5] [%]	inhibition [6] [%]	inhibition [7] [%]	inhibition [8] [%]	inhibition [9] [%]	inhibition [10] [%]	inhibition [11] [%]	inhibition [12] [%]	inhibition [13] [%]	inhibition [14] [%]	inhibition [15] [%]	inhibition [16] [%]	inhibition [17] [%]	inhibition [18] [%]	inhibition [19] [%]	other results
O=C1NCCCC1N1Cc2cc(C3CCN(C(=O)CCCCCN4CCC(c5ccc(Oc6nn7cnnc7c7c6CCCC7)cc5)CC4)CC3)ccc2C1=O (stereo unspecified)	14	16.9	5.72	1860	12	15.1	8.76	10	12	2	3	28.4	13	20	1	41.8	13	17.9	22	15	inhibition at 10 µM [20]: 18%; inhibition [21]: 29.3%; inhibition [22]: 26%; inhibition [23]: 38%; inhibition [24]: 36%; inhibition [25]: 18%; inhibition [26]: 0%; pIC50 [27]: 8.24
O=C1CCC(N2Cc3cc(C4CCN(C(=O)CCCCCN5CCC(c6ccc(Oc7nn8cnnc8c8c7CCCC8)cc6)CC5)CC4)ccc3C2=O)C(=O)N1 (stereo unspecified)	10.1	22.7	5.65	2090	14	11.9	19.8	41	4	14	7	28.9	-4	16	-7	71	16	12.8	15	10	inhibition at 10 µM [20]: 16%; inhibition [21]: 27.6%; inhibition [22]: 28.6%; inhibition [23]: 45%; inhibition [24]: 32%; inhibition [25]: 10%; inhibition [26]: 21%; IC50 [27]: 5.8 nM (active)
